What was measured:
T1 AAD-1 (v3) tobacco = assay: Elevated 2,4-D DMA rates in greenhouse tobacco, AAD-1; type: in vivo, Nicotiana tabacum
Excerpt: T1 AAD-12 (v1) plants from an event segregating 3R:1S when selected with 560 g ai/ha Liberty using the same protocol as previously described. T1 AAD-1 (v3) seed was also planted for transformed tobacco controls (see PCT/US2005/014737). Untransformed KY160 was served as the sensitive control. Plants were sprayed using a track sprayer set to 187 L/ha at 140, 560, 2240, 8960, and 35840 g ae/ha 2,4-D DMA and rated 3 and 14 DAT.

[1] = tested on: 2P782 (Roundup Ready Control) corn; assay: Herbicide tolerance of 2P782 Roundup Ready control corn in the F1 stack test; type: in vivo, Zea mays; settings: 1120 g ae/ha 2,4-D DMA
Excerpt: AAD-12 (v1) (pDAB4101) and elite Roundup Ready inbred (BE1146RR) were reciprocally crossed and F1 seed was collected. The seed from two F1 lines were planted and treated with 70 g ae/ha imazethapyr at the V2 stage to eliminate nulls. To the surviving plants, reps were separated and either treated with 1120 g ae/ha 2,4-D DMA+70 g ae/ha imazethapyr (to confirm presence of AHAS gene) or 1120 g ae/ha 2,4-D DMA+1680 g ae/ha glyphosate (to confirm the presence of the Round Up Ready gene) in a track sprayer calibrated to 187 L/ha. Plants were graded 3 and 16 DAT.

[2] = tested on: AAD-12 (v1) transformed T1 corn plants; assay: Brace root injury of T1 corn after 2,4-D DMA; type: in vivo, Zea mays; settings: 2240 g ae/ha 2,4-D DMA, V3-V4 stage, 14DAT
Excerpt: T1 AAD-12 (v1) seed were planted into 3-inch pots containing Metro Mix media and at 2 leaf stage were sprayed with 70 g ae/ha imazethapyr to eliminate nulls. Surviving plants were transplanted to 1-gallon pots containing Metro Mix media and placed in the same growth conditions as before. At V3-V4 stage the plants were sprayed in the track sprayer set to 187 L/ha at either 560 or 2240 g ac/ha 2,4-D DMA. Plants were graded at 3 and 14 DAT and compared to 5XH751×Hi II control plants. A grading scale of 0-10 (no injury to extreme auxin injury) was developed to distinguish brace root injury. Brace Root grades were taken on 14DAT to show 2,4-D tolerance. 2,4-D causes brace root malformation, and is a consistent indicator of auxinic herbicide injury in corn. […] Event “pDAB4101(0)001.001” was apparently unstable; however, the other two events were robustly tolerant to 2,4-D and 2,4-D+imazethapyr or 2,-4D+glyphosate (see Table 16).

Row | SMILES | Average % injury 14 DAT (T1 AAD-1 (v3) tobacco; 2240 g ae/ha 2,4-D) | Average % injury 14 DAT (T1 AAD-1 (v3) tobacco; 8960 g ae/ha 2,4-D) | Average % injury 14 DAT (T1 AAD-1 (v3) tobacco; 35840 g ae/ha 2,4-D) | Average % Injury 16DAT [1] | Average Brace Root Injury (0-10 Scale) ([2]; event AAD-12 (v1) pDAB4101(0)005.001) | Average Brace Root Injury (0-10 Scale) ([2]; event AAD-12 (v1) pDAB41011(0)003.003) | Average Brace Root Injury (0-10 Scale) ([2]; event AAD-12 (v1)pDAB4101(0)001.001)
1 | O=C(O)COc1ccc(Cl)cc1Cl [2,4-D, 2,4-dichlorophenoxyacetic acid] | 4% | 9% | 32% |  |  |  | 
2 | CNC.O=C(O)COc1ccc(Cl)cc1Cl [2,4-D DMA] |  |  |  | 19% | 0 | 1 | 8

From patent US11371055B2, “Herbicide resistance genes” (CORTEVA AGRISCIENCE LLC, priority 2005, dated 2022)
